The values that follow come from article PMC4446596, “Functional Diversity of Anti-Lipopolysaccharide Factor Isoforms in Shrimp and Their Characters Related to Antiviral Activity” (Marine Drugs, 2015).

For one assay, the system named is M. luteus. Put plainly: Inhibition zone test. Conditions: 20 μL of 64 μM peptide in PBS pH 7.4 on 6 mm filter paper, solid LB plate, 37 °C, 24 h. The format is cell-based, Micrococcus luteus. The method, then:
(§1) Gram-negative bacteria, including Escherichia coli and Aeromonas hydrophila, and Gram-positive bacteria, including Micrococcus luteus and Bacillus simplex were used for antibacterial analyses. The strains were incubated in fresh LB medium overnight at 37 °C for E. coli, M. luteus and 28 °C for A. hydrophila, B. simplex.
(§2) The antibacterial activities of LBD peptides were examined by inhibition zone test. The overnight cultures of bacteria were diluted 100 times and cultured in LB medium at 37 °C (E. coli and M. luteus) or 28 °C (A. hydrophila and B. simplex) for 6 h. These cultures were then diluted 100 times with LB medium separately, and 200 μL solutions from each diluted cultures was taken out and spread on the solid LB medium plate uniformly. Sterile filter paper with a diameter of 6 mm was put on the surface of solid LB medium gently. Twenty microliters of 64 μM peptide solution dissolved in PBS (pH 7.4) was added to the center of filter paper with a diameter of 6 mm. Twenty microliters PBS and 20 μL of 64 μM pGFP peptide were used as negative controls. […] ampicillin solutions was used as the positive control for E. coli, M. luteus and B. simplex culture, and 50 μM kanamycin sulfates was used as the positive control for A. hydrophila culture. The plates were cultured at 37 °C (E. coli and M. luteus) or 28 °C (A. hydrophila and B. simplex) for 24 h.

A further assay deals with WSSV. Nature of the assay: Antiviral activity detection: WSSV pre-incubated with peptide injected into E. carinicauda, in vivo WSSV copy number. Details: species or system Exopalaemon carinicauda. Conditions: E. carinicauda pleopods, 24 h post injection; WSSV (10^3 copies/μL) pre-incubated 2 h at room temperature with 50 μM peptide, 10 μL injected; VP28 real-time PCR; n = 15; WSSV group 1.21 × 10^5, blank 1.31 × 10^3. On the procedure: Exopalaemon carinicauda is being regarded as a good crustacean model animal for WSSV infection experiments. In this study, healthy E. carinicauda with a body length of 5.43 ± 0.30 cm and a body weight of 2.62 ± 0.42 g were used as experimental animals for WSSV infection assay. Animals were acclimatized in the aerated seawater at 25 °C for 1 day before experiments.
In order to learn the effect of synthetic LBD peptides on WSSV infection, WSSV pre-incubated with different peptides was injected into E. carinicauda and the WSSV copy number in the pleopods of E. carinicauda was detected. E. carinicauda was classified into 13 groups and each group contained 18 to 20 individuals. The 13 groups were named as Blank, WSSV, pGFP, LBD1, LBD2, LBD3, LBD4, LBD5, LBD6, LBD7, sLBD2, LBD2-K and LBD4+K, respectively. Synthetic peptides were diluted into 50 μM with PBS (pH 7.4). WSSV was incubated with each peptide solution for 2 h at room temperature with a final concentration 10^3 copies/μL. […] For WSSV group, each shrimp was injected with 10 μL WSSV incubated with PBS (pH 7.4) for 2 h at room temperature. For the other groups (LBD1–LBD7, sLBD2, LBD2-K and LBD4+K), each shrimp was injected with 10 μL of WSSV solution after incubation with corresponding synthetic peptides, respectively. At 24 h post injection (hpi), the pleopods of 15 shrimps in each group were collected and the pleopods from three individuals were put together as one sample. Total DNA of each sample was extracted using the Genomic DNA Kit (Tiangen, China). The viral copy number was measured by detecting the level of VP28 using real-time PCR as described previously.
Background: In qPCR the cycle at which signal appears reflects the starting amount.

Another assay relates to E. coli. Nature of the assay: Inhibition zone test. Type of assay: cell-based, Escherichia coli. Conditions: 20 μL of 64 μM peptide in PBS pH 7.4 on 6 mm filter paper, solid LB plate, 37 °C, 24 h. On the procedure: as §1, §2
Another assay has as its system A. hydrophila. Nature of the assay: Inhibition zone test. The format is cell-based, Aeromonas hydrophila. Conditions: 20 μL of 64 μM peptide in PBS pH 7.4 on 6 mm filter paper, solid LB plate, 28 °C, 24 h. On the procedure:
as §1, §2

Where a SMILES comes first, the peptide text is derived from it.

`CSCC[C@@H]1NC(=O)[C@H](CCCNC(=N)N)NC(=O)CNC(=O)[C@H](CCCCN)NC(=O)[C@H](Cc2ccccc2)NC(=O)[C@H](Cc2ccc(O)cc2)NC(=O)[C@H](CC(C)C)NC(=O)[C@H](CCC(=O)O)NC(=O)[C@H](Cc2ccccc2)NC(=O)[C@H](CO)NC(=O)[C@H](CCCCN)NC(=O)[C@H](C(C)C)NC(=O)[C@H]([C@@H](C)O)NC(=O)[C@@H]2CCCN2C(=O)[C@H]([C@@H](C)O)NC(=O)[C@H](C(C)C)NC(=O)[C@H](CO)NC(=O)[C@H](Cc2ccc(O)cc2)NC(=O)[C@H]([C@@H](C)O)NC(=O)[C@@H](NC(=O)[C@H](CCC(N)=O)NC(C)=O)CSSC[C@@H](C(=O)N2CCC[C@H]2C(N)=O)NC(=O)[C@H](CO)NC1=O` [LBD1] (HELM PEPTIDE1{[ac].Q.C.T.Y.S.V.T.P.T.V.K.S.F.E.L.Y.F.K.G.R.M.S.C.P.[am]}$PEPTIDE1,PEPTIDE1,3:R3-24:R3$$$V2.0): the Inhibition zone result in the assay on M. luteus is given as “Obvious inhibition zones”; in the assay on E. coli, “apparent inhibition zones”. Moreover, the WSSV copy number with WSSV is 4.36 × 10^3 copies/ng DNA.

In the case of `CSCC[C@@H]1NC(=O)[C@H](CCCNC(=N)N)NC(=O)CNC(=O)[C@H](CCCNC(=N)N)NC(=O)[C@H](Cc2ccccc2)NC(=O)[C@H](Cc2ccc(O)cc2)NC(=O)[C@H](CC(C)C)NC(=O)[C@H](CCC(N)=O)NC(=O)[C@H](Cc2c[nH]c3ccccc23)NC(=O)[C@H](CCCNC(=N)N)NC(=O)[C@H](CCCCN)NC(=O)[C@H](Cc2ccccc2)NC(=O)[C@H](CCCCN)NC(=O)[C@@H]2CCCN2C(=O)[C@H]([C@@H](C)O)NC(=O)[C@H](C(C)C)NC(=O)[C@H](CC(N)=O)NC(=O)[C@H](Cc2ccccc2)NC(=O)[C@H](CO)NC(=O)[C@@H](NC(=O)[C@H](Cc2ccc(O)cc2)NC(C)=O)CSSC[C@@H](C(=O)N2CCC[C@H]2C(N)=O)NC(=O)[C@H](Cc2c[nH]c3ccccc23)NC1=O` [LBD2] (HELM PEPTIDE1{[ac].Y.C.S.F.N.V.T.P.K.F.K.R.W.Q.L.Y.F.R.G.R.M.W.C.P.[am]}$PEPTIDE1,PEPTIDE1,3:R3-24:R3$$$V2.0), the Inhibition zone entry is recorded as “Obvious inhibition zones” with M. luteus and “exhibited inhibition zones” with A. hydrophila. Moreover, the WSSV copy number in the assay with WSSV is reported as 1.40 × 10^3 copies/ng DNA.

Regarding `CC[C@H](C)[C@@H]1NC(=O)[C@H](Cc2ccccc2)NC(=O)[C@H](Cc2ccc(O)cc2)NC(=O)[C@H](CC(C)C)NC(=O)[C@H](CCC(N)=O)NC(=O)[C@H](Cc2c[nH]c3ccccc23)NC(=O)[C@H](CCCNC(=N)N)NC(=O)[C@H](CCC(N)=O)NC(=O)[C@H](Cc2ccccc2)NC(=O)[C@H]([C@@H](C)O)NC(=O)[C@@H]2CCCN2C(=O)[C@H](CCCCN)NC(=O)[C@H](C(C)C)NC(=O)[C@H](CO)NC(=O)[C@H](Cc2ccc(O)cc2)NC(=O)[C@H](C(C)C)NC(=O)[C@@H](NC(=O)[C@H](Cc2ccc(O)cc2)NC(C)=O)CSSC[C@@H](C(=O)N2CCC[C@H]2C(N)=O)NC(=O)[C@H](Cc2c[nH]c3ccccc23)NC(=O)[C@H](CCSC)NC(=O)[C@H](CO)NC(=O)CNC1=O` [LBD3] (HELM PEPTIDE1{[ac].Y.C.V.Y.S.V.K.P.T.F.Q.R.W.Q.L.Y.F.I.G.S.M.W.C.P.[am]}$PEPTIDE1,PEPTIDE1,3:R3-24:R3$$$V2.0), the Inhibition zone result in the assay on M. luteus is recorded as “Obvious inhibition zones”. Moreover, the WSSV copy number in the assay on WSSV is 1.19 × 10^5 copies/ng DNA.

For `CC[C@H](C)[C@@H]1NC(=O)[C@H](Cc2ccc(O)cc2)NC(=O)[C@@H]2CCCN2C(=O)[C@H](CCCCN)NC(=O)[C@H](C(C)C)NC(=O)[C@H]([C@@H](C)O)NC(=O)[C@H](Cc2ccccc2)NC(=O)[C@H](CCCCN)NC(=O)[C@@H](NC(=O)[C@H](CCC(=O)O)NC(C)=O)CSSC[C@@H](C(=O)N2CCC[C@H]2C(N)=O)NC(=O)[C@H](Cc2c[nH]c3ccccc23)NC(=O)[C@H](CCSC)NC(=O)[C@H](CCCNC(=N)N)NC(=O)CNC(=O)[C@H](CCCCN)NC(=O)[C@H](Cc2ccc(O)cc2)NC(=O)[C@H](Cc2ccc(O)cc2)NC(=O)[C@H](CC(C)C)NC(=O)[C@H](CCC(N)=O)NC(=O)[C@H](Cc2ccccc2)NC(=O)[C@H](CCCNC(=N)N)NC(=O)[C@H](CCCCN)NC1=O` [LBD7] (HELM PEPTIDE1{[ac].E.C.K.F.T.V.K.P.Y.I.K.R.F.Q.L.Y.Y.K.G.R.M.W.C.P.[am]}$PEPTIDE1,PEPTIDE1,3:R3-24:R3$$$V2.0), in the assay with WSSV, the WSSV copy number was 5.07 × 10^3 copies/ng DNA. Besides, the Inhibition zone result was “apparent inhibition zones” with E. coli and “exhibited inhibition zones” with A. hydrophila.
